Series [1] deals with Respiratory Syncytial Virus. Nature of the series: microbe, parasite or virus in culture. Particulars: human respiratory syncytial virus, 168 h; protection against RSV cytopathology in HeLa cells, MTT read-out seven days after infection; pEC50 = -log of EC50 in molar units. The series is classed as cell-based. The protocol: The percent protection against cytopathology caused by viruses (antiviral activity or EC50) achieved by tested compounds and their cytotoxicity (CC50) are both calculated from dose-response curves.
Automated tetrazolium-based […] assays were used for determination of EC50 and CC50 of test compounds. Flat-bottom, 96-well plastic microtiter trays were filled with 180 μl of Eagle's Basal Medium, supplemented with 5% FCS (0% for FLU) and 20 mM Hepes buffer. Subsequently, stock solutions (7.8× final test concentration) of compounds were added in 45 μl volumes to a series of triplicate wells so as to allow simultaneous evaluation of their effects on virus- and mock-infected cells. Five five-fold dilutions were made directly in the microtiter trays using a robot system. Untreated virus controls, and HeLa cell controls were included in each test. Approximately 100 TCID50 of Respiratory Syncytial Virus was added to two of the three rows in a volume of 50 μl. The same volume of medium was added to the third row to measure the cytotoxicity of the compounds at the same concentrations as those used to measure the antiviral activity. After two hours of incubation, a suspension (4×10^5 cells/ml) of HeLa cells was added to all wells in a volume of 50 μl. The cultures were incubated at 37° C. in a 5% CO2 atmosphere. Seven days after infection the cytotoxicity and the antiviral activity was examined spectrophotometrically. To each well of the microtiter tray, 25 μl of a solution of MTT (3-(4,5-dimethylthiazol-2-yl)-2,5-diphenyltetrazolium bromide) was added. The trays were further incubated at 37° C. for 2 hours, after which the medium was removed from each cup. Solubilization of the formazan crystals was achieved by adding 100 μl 2-propanol. Complete dissolution of the formazan crystals were obtained after the trays have been placed on a plate shaker for 10 min. Finally, the absorbances were read in an eight-channel computer-controlled photometer (Multiskan MCC, Flow Laboratories) at two wavelengths (540 and 690 nm). The absorbance measured at 690 nm was automatically subtracted from the absorbance at 540 nm, so as to eliminate the effects of non-specific absorption.

Counter-ions that a name gives are not always drawn.

As a reminder, the melting point is the temperature, or range, at which the solid turns liquid. For the molecule `Cc1cc(C)c2nc(NCCCN3CCCCC3)n(Cc3nc(C)ccc3O)c2c1` (as salt: salt) [Compound 1, 2-[4,6-dimethyl-2-(3-piperidin-1-yl-propylamino)-benzoimidazol-1-ylmethyl]-6-methyl-pyridin-3-ol], the melting point was greater than 260 °C.
The molecule `Cc1cc(C)c2nc(NCC(O)CO)n(Cc3nc(C)ccc3O)c2c1` (stereo not drawn) (as salt: salt) [Compound 4, 3-[1-(3-hydroxy-6-methyl-pyridin-2-ylmethyl)-4,6-dimethyl-1H-benzoimidazol-2-ylamino]-propane-1,2-diol] came in with a melting point of 205 °C.
Same read-out and setting: the figure for `Cc1cc(C)c2nc(NCCCO)n(Cc3nc(C)ccc3O)c2c1` (as salt: salt) [Compound 7, 2-[2-(3-hydroxypropylamino)-4,6-dimethyl-benzoimidazol-1-ylmethyl]-6-methyl-pyridin-3-ol] is 170 °C; for `Cc1cc(C)c2nc(NCCC(N)=O)n(Cc3nc(C)ccc3O)c2c1` (as salt: salt) [Compound 8, 3-[1-(3-hydroxy-6-methyl-pyridin-2-ylmethyl)-4,6-dimethyl-1H-benzoimidazol-2-ylamino]-propionamide] it is 229 °C; for `Cc1cc(C)c2nc(Nc3ccc(CN)cc3)n(Cc3nc(C)ccc3O)c2c1` (as salt: salt) [Compound 9, 2-[2-(4-aminomethyl-phenylamino)-4,6-dimethyl-benzoimidazol-1-ylmethyl]-6-methyl-pyridin-3-ol] it is 255 °C.
In turn, `CCOC(=O)CCNc1nc2c(C)cc(C)cc2n1Cc1nc(C)ccc1O` (as salt: salt) [Compound 12, 3-[1-(3-hydroxy-6-methylpyridin-2-ylmethyl)-4,6-dimethyl-1H-benzoimidazol-2-ylamino]-propionic acid ethyl ester] gave a melting point of 180 °C.
For orientation: EC50 means the concentration needed to bring the measured effect to its halfway point. On to `Cc1cc(C)c2nc(NCCCN3CCCCC3)n(Cc3nc(C)ccc3O)c2c1` [Compound 1, 2-[4,6-dimethyl-2-(3-piperidin-1-yl-propylamino)-benzoimidazol-1-ylmethyl]-6-methyl-pyridin-3-ol], for which the concentration giving a half-maximal response (EC50) in series [1] is 20 nM.
Still for that read-out and setting: the figure for `Cc1cc(C)c2nc(NCC(O)CO)n(Cc3nc(C)ccc3O)c2c1` (stereo not drawn) [Compound 4, 3-[1-(3-hydroxy-6-methyl-pyridin-2-ylmethyl)-4,6-dimethyl-1H-benzoimidazol-2-ylamino]-propane-1,2-diol] is 39.8 nM; for `Cc1cc(C)c2nc(NCCCO)n(Cc3nc(C)ccc3O)c2c1` [Compound 7, 2-[2-(3-hydroxypropylamino)-4,6-dimethyl-benzoimidazol-1-ylmethyl]-6-methyl-pyridin-3-ol] it is 158 nM; for `Cc1cc(C)c2nc(NCCC(N)=O)n(Cc3nc(C)ccc3O)c2c1` [Compound 8, 3-[1-(3-hydroxy-6-methyl-pyridin-2-ylmethyl)-4,6-dimethyl-1H-benzoimidazol-2-ylamino]-propionamide] it is 158 nM.
For `Cc1cc(C)c2nc(Nc3ccc(CN)cc3)n(Cc3nc(C)ccc3O)c2c1` [Compound 9, 2-[2-(4-aminomethyl-phenylamino)-4,6-dimethyl-benzoimidazol-1-ylmethyl]-6-methyl-pyridin-3-ol], the EC50 in series [1] was 251 nM.
Turning to `CCOC(=O)CCNc1nc2c(C)cc(C)cc2n1Cc1nc(C)ccc1O` [Compound 12, 3-[1-(3-hydroxy-6-methylpyridin-2-ylmethyl)-4,6-dimethyl-1H-benzoimidazol-2-ylamino]-propionic acid ethyl ester], in series [1], the EC50 was 3160 nM.

(Values after patent US20090036466A1, “AMINO-BENZIMIDAZOLES DERIVATIVES AS INHIBITORS OF RESPIRATORY SYNCYTIAL VIRUS REPLICATION” (priority 2003, published 2009).)
